We go through two compounds from US12263156B2, “Use of small molecule inhibitors of the BfrB:Bfd interaction in biofilms” (priority 2020, dated 2025).

The assay concerns P. aeruginosa PAO1. As to the kind of experiment: Half maximal inhibitory concentration (IC50) of planktonic growth, CFU/mL enumeration. In kind it is cell-based, Pseudomonas aeruginosa. Conditions: for IC50: Pseudomonas aeruginosa, PAO1, planktonic growth, 24 h, 35° C, defined media, 2% DMSO, average ± SD of three experiments. How it is done:
Chemicals were purchased from Fisher Scientific (Waltham, MA) unless otherwise stated. P. aeruginosa PAO1 was obtained from the University of Washington Genome center.^80 The PAO1 strain expressing enhanced yellow fluorescent protein (EYFP) was prepared as described in Soldano, A.; Yao, H.; Chandler, J. R.; Rivera, M. (2020) Inhibiting Iron Mobilization from Bacterioferritin in Pseudomonas aeruginosa Impairs Biofilm Formation Irrespective of Environmental Iron Availability. ACS Infect. Dis. 6, 447-458. 10.1021/acsinfecdis.9b00398.^26 Clinical isolates of P. aeruginosa were purchased from JMI Laboratories (North Liberty, IA, USA). […] Starter cultures of P. aeruginosa PAO1 in 5 mL LB media were grown for 13 hours in 50 mL conical tubes at 37° C. and 220 rpm. For biofilm experiments, a EYFP-expressing P. aeruginosa strain was routinely grown in Pseudomonas Isolation (PI) media (20 g L^−1 peptone, 0.3 g L^−1 MgCl2·6H O, 10 g L^−1 K2SO4, 25 mg L^−1 irgasan, and 20 mL L^−1 glycerol, pH 7.0). Starter cultures were grown from a single colony at 37° C. and shaking at 220 rpm for 14 hours in 5 mL PI media supplemented with 10 μM Fe. Pellicle biofilms were cultured for 48 hours at 30° C. in PI media supplemented with 20 μM Fe. Surface-attached biofilms were cultured in AB minimal media^81 supplemented with trace metals [0.15 μM (NH4)2MoO4, 3 μM CuSO4, 2 μM Co(NO3)2, 9.4 μM Na2B4O7, and 7.6 μM ZnSO4], 3 mM glucose and 15 μM Fe. Iron supplementation was carried out by addition of a small volume of filter-sterilized 10 mM (NH4)2Fe(SO4)2 (pH˜2.0) solution. […]; IC50 values (Table 1 below) were determined as reported previously^25 with small modifications. In brief: precultures of P. aeruginosa PAO1 (5 mL) were grown in LB media for 13 hours at 37° C. and 220 rpm in 50 mL conical tubes (VWR International, PA). The cells were centrifuged for 5 min at 4,000 rpm and 4° C., washed two times and then diluted in buffer (100 mM KH2PO4 and 15 mM (NH4)2SO4 to an optical density at 600 nm (OD600) of 0.1. A small volume of compound stock solution (10 mM) was transferred to a microcentrifuge tube, initially diluted with DMSO to 20 μL, and then diluted to 1 mL with preculture cell suspension in defined media with OD600=0.0001, so the final DMSO concentration is 2%. The resultant cell suspension (200 μL) was transferred to a clear-bottom polystyrene 96-well plate (VWR International, PA) covered with a lid and incubated at 35° C. and 205 cpm for 24 h in a Synergy H1 microplate reader (Biotek Instruments Inc., Winooski, VT). The cell cultures were serially diluted and then plated on PI Agar (PIA; BD Biosciences, San Jose, CA) plates for enumeration of viable cells (CFU/mL). The % growth was calculated from the ratio CFU/mL(treated)/CFU/mL(untreated control). To calculate the IC50 values, the % growth was plotted as a function of compound concentration, expressed as log[compound] (μM), and fitted to the 4-parameter logistic model describing the sigmoid-shaped response pattern (equation 1),^83 where b is the slope factor, max is the upper asymptote (plateau), and min is the lower asymptote. Values are the average and standard deviation from three independent experiments.

In general, IC50 refers to the point on the concentration scale where inhibition reaches its midpoint. As for `O=C1NC(=O)c2c(NCc3cc(Cl)ccc3O)cccc21` [KM-5-25], the concentration for half-maximal inhibition (IC50) worked out at 69 ± 7 µM. Also, where the note is “relative to JAG-5-7”, the “fold lower IC50 relative to JAG-5-7” value was roughly 2 fold.
In the case of `O=C1NC(=O)c2c(NCCCc3cc(O)cc(Cl)c3)cccc21` [KM-5-66], the half-inhibitory concentration (IC50) came to 42 ± 6 µM. Where the note is “relative to compound 16”, the “fold decrease of IC50 relative to compound 16” value is roughly 3 fold.
